Laboratory results as given in DBAASP.
Converted amounts (≈) assume the structure as drawn. Each block holds one compound with its values, some of them ahead of it.

How the values were obtained:
Test in all cases: ≥ marks a high value that may be exact or a test limit, other limits are often not marked, values filed in µg/mL are converted to µM
Bacillus cereus = tested on: Bacillus cereus
Escherichia coli = tested on: Escherichia coli
Leuconostoc lactis = tested on: Leuconostoc lactis
Listeria innocua = tested on: Listeria innocua
Micrococcus luteus = tested on: Micrococcus luteus
Pasteurella multocida = tested on: Pasteurella multocida
Staphylococcus aureus = tested on: Staphylococcus aureus
[1] = tested on: Staphylococcus epidermidis
Streptococcus uberis = tested on: Streptococcus uberis
Escherichia coli BL21 = tested on: Escherichia coli BL21
[2] = tested on: Pseudomonas aeruginosa PAO1
[3] = tested on: Streptococcus pyogenes M1T1 5448
[4] = tested on: Batrachochytrium dendrobatidis JEL-197
[5] = tested on: Candida albicans ATCC 90028
[6] = tested on: Escherichia coli ATCC 25726
[7] = tested on: Staphylococcus aureus ATCC 25923
Bacillus subtilis = tested on: Bacillus subtilis
[8] = tested on: Candida albicans ATCC 2002
Escherichia coli ML-35p = tested on: Escherichia coli ML-35p
[9] = tested on: Staphylococcus aureus ATCC 43300

MIC (Bacillus cereus): ≥ 41.8 µM
MIC (Escherichia coli): > 41.8 µM
MIC (Leuconostoc lactis): ≥ 41.8 µM
MIC (Listeria innocua): ≥ 41.8 µM
MIC (Micrococcus luteus): ≥ 41.8 µM
MIC (Pasteurella multocida): 10.4 µM (≈ 25 µg/mL)
MIC (Staphylococcus aureus): > 41.8 µM
MIC [1]: ≥ 41.8 µM
MIC (Streptococcus uberis): ≥ 41.8 µM
Structure (SMILES): CCC(C)[C@H](N=C(O)C(CO)N=C(O)[C@H](CO)N=C(O)[C@@H](N=C(O)C(CC(C)C)N=C(O)CN)C(C)C)C(O)=NCC(O)=N[C@@H](CCCNC(=N)N)C(O)=N[C@@H](C)C(O)=N[C@@H](CC(C)C)C(O)=NCC(O)=NCC(O)=N[C@@H](CC(C)C)C(O)=N[C@@H](CC(C)C)C(O)=N[C@@H](C)C(O)=NC(CC(=O)O)C(O)=NC(C(O)=N[C@@H](C(O)=N[C@H](CCCCN)C(O)=N[C@H](CO)C(O)=N[C@H](CCCCN)C(O)=NCC(O)=N[C@H](CCC(=N)O)C(=O)N1CCCC1C(O)=N[C@H](C)C(=O)O)C(C)C)C(C)C (stereo partly specified) [GLVSSIGRALGGLLADVVKSKGQPA]

MIC (Bacillus cereus): ≥ 47.1 µM
MIC (Escherichia coli): > 47.1 µM
MIC (Leuconostoc lactis): 2.82 µM (≈ 6 µg/mL)
MIC (Listeria innocua): ≥ 47.1 µM
MIC (Micrococcus luteus): 23.5 µM (≈ 50 µg/mL)
MIC (Pasteurella multocida): ≥ 47.1 µM
MIC (Staphylococcus aureus): 23.5 µM (≈ 50 µg/mL)
MIC [1]: 23.5 µM (≈ 50 µg/mL)
MIC (Streptococcus uberis): 23.5 µM (≈ 50 µg/mL)
Structure (SMILES): CC[C@H](C)[C@H](NC(=O)[C@H](C)NC(=O)[C@@H]1CCCN1C(=O)[C@H](CC(C)C)NC(=O)[C@@H](NC(=O)[C@H](Cc1cnc[nH]1)NC(=O)[C@H](CO)NC(=O)[C@@H](NC(=O)[C@@H](NC(=O)[C@H](CO)NC(=O)CNC(=O)[C@H](CC(C)C)NC(=O)[C@H](CC(C)C)NC(=O)CNC(=O)[C@H](CC(C)C)NC(=O)[C@H](CC(C)C)NC(=O)CN)C(C)C)C(C)C)C(C)C)C(=O)N[C@H](C(=O)N[C@@H](CCC(N)=O)C(=O)N[C@@H](Cc1cnc[nH]1)C(=O)N[C@@H](CC(C)C)C(N)=O)[C@@H](C)O [GLLGLLGSVVSHVLPAITQHL]

MIC [4]: 12.5 µM (≈ 31.9 µg/mL)
MIC [5]: 25 µM (≈ 63.8 µg/mL)
MIC [6]: ≥ 100 µM
MIC [7]: 25 µM (≈ 63.8 µg/mL)
Structure (SMILES): CC[C@H](C)[C@H](NC(=O)[C@H](CO)NC(=O)[C@@H]1CCCN1C(=O)[C@@H](NC(=O)[C@H](CC(C)C)NC(=O)CNC(=O)[C@H](C)NC(=O)[C@H](CC(C)C)NC(=O)[C@@H](NC(=O)[C@@H]1CCCN1C(=O)[C@H](CC(C)C)NC(=O)[C@@H](N)Cc1ccccc1)C(C)C)[C@@H](C)O)C(=O)N[C@H](C(=O)N1CCC[C@H]1C(=O)N[C@@H](CCCCN)C(=O)N[C@@H](CC(C)C)C(=O)N[C@H](C(=O)N[C@H]1CSSC[C@@H](C(=O)O)NC(=O)[C@H](CCCCN)NC(=O)[C@H](CCCCN)NC(=O)[C@H]([C@@H](C)O)NC(=O)[C@H](CC(C)C)NC(=O)[C@H](CC(C)C)NC1=O)C(C)C)C(C)C [FLPVLAGLTPSIVPKLVCLLTKKC]

MIC [4]: 12.5 µM (≈ 31.8 µg/mL)
MIC [5]: 12 µM (≈ 30.6 µg/mL)
MIC [6]: ≥ 50 µM
MIC [7]: 6 µM (≈ 15.3 µg/mL)
Structure (SMILES): CC[C@H](C)[C@@H]1NC(=O)[C@H](CC(C)C)NC(=O)[C@@H](NC(=O)[C@@H](NC(=O)[C@H](CC(C)C)NC(=O)[C@H](CCCCN)NC(=O)[C@@H]2CCCN2C(=O)[C@@H](NC(=O)[C@H](CCSC)NC(=O)[C@H](CO)NC(=O)[C@H](C)NC(=O)[C@H](C)NC(=O)[C@H](CC(C)C)NC(=O)CNC(=O)[C@H](C)NC(=O)[C@H](CC(C)C)NC(=O)[C@H](CCSC)NC(=O)[C@@H]2CCCN2C(=O)[C@H](CC(C)C)NC(=O)[C@@H](N)Cc2ccccc2)C(C)C)C(C)C)CSSC[C@@H](C(=O)O)NC(=O)[C@H](CCCCN)NC(=O)[C@H](CCCCN)NC(=O)[C@H]([C@@H](C)O)NC1=O [FLPMLAGLAASMVPKLVCLITKKC]

MIC [4]: ≥ 50 µM
MIC [6]: ≥ 160 µM
MIC [7]: 80 µM (≈ 232 µg/mL)
Structure (SMILES): CC[C@H](C)[C@H](NC(=O)CN)C(=O)N[C@@H](CC(C)C)C(=O)N[C@@H](CC(=O)O)C(=O)N[C@H](C(=O)N[C@H](C(=O)N[C@@H](CCCCN)C(=O)NCC(=O)N[C@H](C(=O)N[C@@H](C)C(=O)N[C@@H](CCCCN)C(=O)N[C@@H](CC(=O)O)C(=O)N[C@H](C(=O)N[C@@H](C)C(=O)N[C@@H](C)C(=O)N[C@@H](Cc1cnc[nH]1)C(=O)N[C@@H](CC(C)C)C(=O)N[C@@H](CC(C)C)C(=O)N[C@@H](CC(N)=O)C(=O)N[C@@H](CCSC)C(=O)N[C@H](C(=O)N[C@@H](CCCCN)C(=O)N[C@H]1CSSC[C@@H](C(=O)O)NC(=O)CNC(=O)[C@H]([C@@H](C)O)NC(=O)[C@H]([C@@H](C)CC)NC(=O)[C@H](CCCCN)NC1=O)C(C)C)C(C)C)C(C)C)C(C)C)[C@@H](C)O [GILDTVKGVAKDVAAHLLNMVKCKITGC]

More lines, now with the values behind:

Structure (SMILES): CC[C@H](C)[C@H](NC(=O)[C@H](Cc1ccc(O)cc1)NC(=O)[C@H](CCCCN)NC(=O)[C@H](CCCCN)NC(=O)[C@H](CC(C)C)NC(=O)[C@H](CCC(=O)O)NC(=O)[C@H](CCCCN)NC(=O)[C@H](Cc1c[nH]c2ccccc12)NC(=O)[C@@H](NC(=O)[C@H](CCCN=C(N)N)NC(=O)[C@H](CCC(=O)O)NC(=O)[C@H](CO)NC(=O)CNC(=O)[C@H](C)N)[C@@H](C)CC)C(=O)N[C@@H](CCCCN)C(=O)N[C@@H](CCCCN)C(=O)NCC(=O)N[C@@H](CCCCN)C(=O)N[C@@H](CCCCN)C(=O)N[C@H](C(=O)N[C@H](C(=O)N[C@@H](CCCN=C(N)N)C(=O)N[C@@H](C)C(=O)N[C@@H](C)C(=O)N[C@@H](Cc1c[nH]c2ccccc12)C(=O)O)[C@@H](C)CC)C(C)C [AGSERIWKELKKYIKKGKKVIRAAW]
MIC (Escherichia coli BL21): 2 µM (≈ 5.98 µg/mL)
MIC [2]: 8 µM (≈ 23.9 µg/mL)
MIC [3]: 16 µM (≈ 47.8 µg/mL)

Structure (SMILES): CC[C@H](C)[C@H](NC(=O)[C@H](CCCCN)NC(=O)[C@H](CCCCN)NC(=O)[C@H](CCCCN)NC(=O)[C@H](CC(C)C)NC(=O)[C@H](Cc1ccccc1)NC(=O)[C@H](CCC(N)=O)NC(=O)[C@H](CCCN=C(N)N)NC(=O)[C@@H](NC(=O)[C@@H](NC(=O)[C@H](CCC(=O)O)NC(=O)[C@H](CCCCN)NC(=O)CNC(=O)[C@H](C)N)[C@@H](C)O)[C@@H](C)CC)C(=O)N[C@@H](CCC(N)=O)C(=O)N[C@@H](CCC(=O)O)C(=O)N[C@@H](Cc1c[nH]c2ccccc12)C(=O)N[C@@H](CCCCN)C(=O)N[C@@H](CCCCN)C(=O)N[C@@H](CCCN=C(N)N)C(=O)N[C@@H](C)C(=O)N[C@H](C(=O)N[C@H](C(=O)N[C@@H](C)C(=O)N[C@@H](Cc1c[nH]c2ccccc12)C(=O)O)[C@@H](C)CC)[C@@H](C)O [AGKETIRQFLKKKIQEWKKRATIAW]
MIC (Escherichia coli BL21): 0.5 µM (≈ 1.53 µg/mL)
MIC [2]: 16 µM (≈ 48.9 µg/mL)
MIC [3]: 0.5 µM (≈ 1.53 µg/mL)

Structure (SMILES): CC[C@H](C)[C@H](NC(=O)[C@H](CCCCN)NC(=O)CNC(=O)[C@H](Cc1ccccc1)NC(=O)[C@H](CCCCN)NC(=O)[C@H](CCCN=C(N)N)NC(=O)[C@H](CC(C)C)NC(=O)[C@H](Cc1ccc(O)cc1)NC(=O)[C@H](CCC(=O)O)NC(=O)[C@H](CC(C)C)NC(=O)[C@H](CC(C)C)NC(=O)[C@H](CCC(=O)O)NC(=O)[C@H](CCCCN)NC(=O)[C@@H](NC(=O)[C@H](CC(C)C)NC(=O)[C@H](CCCN=C(N)N)NC(=O)[C@H](CCC(N)=O)NC(=O)[C@H](C)NC(=O)CNC(=O)[C@H](C)N)[C@@H](C)O)C(=O)N[C@@H](C)C(=O)N[C@@H](CCCN=C(N)N)C(=O)N[C@@H](CCCCN)C(=O)N[C@@H](C)C(=O)N[C@@H](Cc1c[nH]c2ccccc12)C(=O)O [AGAQRLTKELLEYLRKFGKIARKAW]
MIC (Escherichia coli BL21): 4 µM (≈ 11.8 µg/mL)
MIC [2]: 64 µM (≈ 189 µg/mL)
MIC [3]: 0.5 µM (≈ 1.47 µg/mL)

Structure (SMILES): CC[C@H](C)[C@H](NC(=O)CNC(=O)[C@H](C)NC(=O)[C@H](C)NC(=O)[C@@H](NC(=O)[C@H](CCCCN)NC(=O)[C@H](CC(C)C)NC(=O)[C@@H](NC(=O)[C@@H]1CCCN1C(=O)CNC(=O)[C@@H](NC(=O)[C@@H](N)Cc1ccccc1)[C@@H](C)CC)C(C)C)[C@@H](C)CC)C(=O)N[C@@H](CC(C)C)C(=O)N1CCC[C@H]1C(=O)N[C@H](C(=O)N[C@@H](C)C(=O)N[C@H](C(=O)N[C@H]1CSSC[C@@H](C(=O)O)NC(=O)[C@H](CCCCN)NC(=O)[C@H](CCCCN)NC(=O)[C@H](Cc2ccccc2)NC(=O)[C@H]([C@@H](C)CC)NC(=O)[C@H](CCCCN)NC1=O)[C@@H](C)CC)[C@@H](C)O [FIGPVLKIAAGILPTAICKIFKKC]
MIC (Bacillus subtilis): 1.84 µM (≈ 4.69 µg/mL)
MIC [8]: 1.84 µM (≈ 4.69 µg/mL)
MIC (Escherichia coli ML-35p): 7.37 µM (≈ 18.7 µg/mL)
MIC [7]: 0.919 µM (≈ 2.34 µg/mL)
MIC [9]: 3.69 µM (≈ 9.37 µg/mL)

Structure (SMILES): CC[C@H](C)[C@@H]1NC(=O)[C@H](CC(C)C)NC(=O)[C@@H](NC(=O)[C@@H](NC(=O)[C@@H](NC(=O)[C@H](CCCCN)NC(=O)[C@@H]2CCCN2C(=O)[C@@H](NC(=O)[C@@H](NC(=O)[C@H](CCCN=C(N)N)NC(=O)[C@H](C)NC(=O)[C@H](C)NC(=O)[C@@H](NC(=O)CNC(=O)[C@H](C)NC(=O)[C@H](CC(C)C)NC(=O)[C@H](CCSC)NC(=O)[C@@H]2CCCN2C(=O)[C@H](Cc2ccccc2)NC(=O)[C@@H](N)Cc2ccccc2)C(C)C)C(C)C)C(C)C)C(C)C)[C@@H](C)CC)CSSC[C@@H](C(=O)O)NC(=O)[C@H](CCCCN)NC(=O)[C@H](CCCCN)NC(=O)[C@H]([C@@H](C)O)NC1=O [FFPMLAGVAARVVPKVICLITKKC]
MIC [4]: 6.25 µM (≈ 16.3 µg/mL)
MIC [6]: ≥ 50 µM
MIC [7]: 12.5 µM (≈ 32.5 µg/mL)
